In publication PMC9482650, “Quantitative fragmentomics allow affinity mapping of interactomes” (Nature Communications, 2022):
Ends that are not written are not given here. * marks the point of attachment. Biotin = O=C1N[C@H]2[C@H](CS[C@H]2CCCCC(=O)*)N1; ttds = NCCCOCCOCCOCCCNC(=O)CCC(=O)*

What was measured:
PDZ-proteins = test: Estimated PPI affinity, additive association constants of all PDZ sites; assay type: binding, human;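 further: calculated estimate, not directly measured: domain-motif affinities from holdup assays, association constants summed over all PDZ sites, one motif bound at a time, weak interactions ignored, giving a lower limit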
Description: We used the previously generated domain-motif interactome, consisting of the composite affinities (i.e., taken from the most reliable holdup method; see above) to estimate affinities of PPIs. We assumed that a multidomain PDZ-protein can only interact with a single PBM at the same time (Eq. (4)):4 PDZ+PBM⇌(PDZ−PBM)site1,or(PDZ−PBM)site2,or(PDZ−PBM)siten
Using this approximation, as proposed by others before[45], the association constant of a multi-site interaction is the sum of the association constants of all sites (Eq. (5)):5 Ka,additive=[PDZ−PBM]site1+[PDZ−PBM]site2+…+[PDZ−PBM]siten/[PDZ]×[PBM]=∑Ka,site
The contribution of unmeasurable weak interactions was also neglected in the calculations.

HaCat cell extract preys = test: PBM-AP-MS, PBM peptide baits; assay type: binding, human
Description: HEK293T and HeLa cells were authenticated and found 100% identity to ATCC cat. CRL-3216 and ATCC cat. CCL-2, respectively. Jurkat and HaCat cell lines were not authenticated (original source: ECACC and Deutsches Krebsforschungszentrum DKFZ, respectively). HeLa cells were grown in DMEM (1 g/L glucose, Gibco) medium completed with 5% FCS and 40 μg/mL gentamicin, diluted every 3rd/4th day 1/10. HaCat cells were grown in DMEM (1 g/L glucose, Gibco) medium completed with 10% FCS and 40 μg/mL gentamicin, diluted every 3rd/4th day 1/4. Jurkat cells were grown in RPMI (Gibco) medium completed with 10% FCS and 40 μg/mL gentamicin, diluted every 3rd/4th day 1/12. All cells were kept at 37 °C and 5% CO2. For proteomics analyses cells were seeded on T-175 flasks. After they reached confluency, adherent cells were washed with PBS once and collected by scraping with ice-cold lysis buffer (Hepes-KOH pH 7.5 50 mM, NaCl 150 mM, Triton X-100 1%, complete EDTA-free protease inhibitor cocktail 1×, EDTA 2 mM, TCEP 5 mM, glycerol 10%). Jurkat cells were collected by 1000 g × centrifugation, washed once with PBS, then collected by 1000 g × 5 min centrifugation again and lysed in ice-cold lysis buffer. Lysates were sonicated 4 × 20 s with 1 s long pulses on ice, then incubated rotating at 4 °C for 30 min. Lysates were centrifuged at 12,000 rpm 4 °C for 20 min and supernatant was kept for further analysis. Concentration determination was carried out by standard Bradford method (Bio-Rad Protein Assay Dye Reagent #5000006) using BSA (MP BIomedicals #160069) as control on a Bio-Rad SmartSpec 3000 spectrophotometer instrument.
For PBM-AP-MS experiments, 30 μl streptavidin resin was mixed with biotin or peptide at 50–60 μM concentration in 6–6.5 resin volume for 60 min to achieve resin saturation. For PDZ-AP-MS experiments, 30 μl streptavidin resin was mixed with biotinylated MBP or MBP-PDZ at 40-50 μM concentration in >1000× resin volume for 60 min to achieve resin saturation. After saturation, resins were washed a single time (ten resin volume, holdup buffer), and were depleted with biotin (1 mM biotin, 5–10 resin volume, 10 min). Finally, resins were washed two times. 0.5 ml 2 mg/ml cell lysate was added to the dry resin (1 mg total input) and were incubated at 4 °C for 2 h. Then, the beads were washed three times with 10 resin volume buffer containing: 50 mM TRIS pH 8.5, 150 mM NaCl, 1% TritonX-100, 10× complete EDTA-free protease inhibitor cocktail, 2 mM EDTA, 1 mM TCEP. Then, the beads were washed two times with ten resin volume buffer containing: 50 mM TRIS pH 8.5, 150 mM NaCl, 1 mM TCEP. Finally, captured protein was eluted from the resin in two steps and the eluted fractions were pooled. For each elution the beads were incubated for 30 min with three resin volume buffer containing: 20 mM TRIS pH8.5, 100 mM NaCl, 500 μM TCEP, 8 M Urea. Between each step, the beads were separated by mild centrifugation and the supernatant was removed by gentle pipetting.
The samples were precipitated with TCA 20% overnight at 4 °C and centrifuged at 14,000 rpm for 10 min at 4 °C. The protein pellets were washed twice with 1 mL cold acetone and air dried. The protein extracts were solubilized in urea 8 M, reduced with 5 mM TCEP for 30 min, and alkylated with 10 mM iodoacetamide for 30 min in the dark. Double digestion was performed at 37 °C with 500 ng endoproteinase Lys-C for 4 h, followed by fourfold dilution and an overnight digestion with 500 ng trypsin. Peptide mixtures were then desalted on C18 spin-column and dried on Speed-Vacuum.
Samples were analyzed using an Ultimate 3000 nano-RSLC (Thermo Scientific, San Jose California) coupled in line with a LTQ-Orbitrap ELITE mass spectrometer via a nano-electrospray ionization source (Thermo Scientific, San Jose California). […]

Substance: HPV18E6
- final additive pKd (PDZ-proteins; PDZ-protein AHNAK): 3.5
- final additive pKd (PDZ-proteins; PDZ-protein CASK): 3.5
- final additive pKd (PDZ-proteins; PDZ-protein DLG1): 5.948
- final additive pKd (PDZ-proteins; PDZ-protein InaDl): 3.7336
- final additive pKd (PDZ-proteins; PDZ-protein LAP2): 3.615
- final additive pKd (PDZ-proteins; PDZ-protein LIN7C): 4.171
- final additive pKd (PDZ-proteins; PDZ-protein LNX2): 3.17
- final additive pKd (PDZ-proteins; PDZ-protein MAGI3): 5.558
- final additive pKd (PDZ-proteins; PDZ-protein MPP5): 3.5
- final additive pKd (PDZ-proteins; PDZ-protein MPP6): 3.5
- final additive pKd (PDZ-proteins; PDZ-protein MPP7): 3.5
- final additive pKd (PDZ-proteins; PDZ-protein NHERF2): 3.5
- final additive pKd (PDZ-proteins; PDZ-protein PDLIM2): 3.5
- final additive pKd (PDZ-proteins; PDZ-protein PDLIM5): 3.5
- final additive pKd (PDZ-proteins; PDZ-protein PDLIM7): 3.5
- final additive pKd (PDZ-proteins; PDZ-protein PSMD9): 3.5
- final additive pKd (PDZ-proteins; PDZ-protein SCRIB): 5.064
- final additive pKd (PDZ-proteins; PDZ-protein SNTB1): 5.229
- final additive pKd (PDZ-proteins; PDZ-protein SNTB2): 4.58
- final additive pKd (PDZ-proteins; PDZ-protein SNX27): 4.554
- final additive pKd (PDZ-proteins; PDZ-protein SYNJ2BP): 5.349
- final additive pKd (PDZ-proteins; PDZ-protein TX1B3): 4.665
- Enrichment values compared to biotin controls (HaCat cell extract preys; prey AHNAK2, PBM peptide bait): 0.8
- Enrichment values compared to biotin controls (HaCat cell extract preys; prey AHNAK, PBM peptide bait): 1.4
- Enrichment values compared to biotin controls (HaCat cell extract preys; prey DLG1, PBM peptide bait): 2.3
- Enrichment values compared to biotin controls (HaCat cell extract preys; prey GORASP2, PBM peptide bait): 9.0
- Enrichment values compared to biotin controls (HaCat cell extract preys; prey InaDl, PBM peptide bait): 8.0
- Enrichment values compared to biotin controls (HaCat cell extract preys; prey LAP2, PBM peptide bait): 0.9
- Enrichment values compared to biotin controls (HaCat cell extract preys; prey LIN7C, PBM peptide bait): 215.4
- Enrichment values compared to biotin controls (HaCat cell extract preys; prey MAGI3, PBM peptide bait): 7.4
- Enrichment values compared to biotin controls (HaCat cell extract preys; prey MPP5, PBM peptide bait): 11.3
- Enrichment values compared to biotin controls (HaCat cell extract preys; prey MPP6, PBM peptide bait): 5.0
- Enrichment values compared to biotin controls (HaCat cell extract preys; prey MPP7, PBM peptide bait): 48.3
- Enrichment values compared to biotin controls (HaCat cell extract preys; prey NHERF2, PBM peptide bait): 1.8
- Enrichment values compared to biotin controls (HaCat cell extract preys; prey NHERF, PBM peptide bait): 2.5
- Enrichment values compared to biotin controls (HaCat cell extract preys; prey PDLIM1, PBM peptide bait): 3.2
- Enrichment values compared to biotin controls (HaCat cell extract preys; prey PDLIM2, PBM peptide bait): 0.8
- Enrichment values compared to biotin controls (HaCat cell extract preys; prey PDLIM4, PBM peptide bait): 1.0
- Enrichment values compared to biotin controls (HaCat cell extract preys; prey PDLIM5, PBM peptide bait): 0.7
- Enrichment values compared to biotin controls (HaCat cell extract preys; prey PDLIM7, PBM peptide bait): 0.5
- Enrichment values compared to biotin controls (HaCat cell extract preys; prey PTPN3, PBM peptide bait): 1.7
- Enrichment values compared to biotin controls (HaCat cell extract preys; prey SCRIB, PBM peptide bait): 0.6
- Enrichment values compared to biotin controls (HaCat cell extract preys; prey SNTB2, PBM peptide bait): 15.4
- Enrichment values compared to biotin controls (HaCat cell extract preys; prey SNX27, PBM peptide bait): 0.641
- Enrichment values compared to biotin controls (HaCat cell extract preys; prey SYNJ2BP, PBM peptide bait): 58.4
- Enrichment values compared to biotin controls (HaCat cell extract preys; prey TJP1, PBM peptide bait): 8.8
- Enrichment values compared to biotin controls (HaCat cell extract preys; prey TJP2, PBM peptide bait): 1.8
- Enrichment values compared to biotin controls (HaCat cell extract preys; prey TX1B3, PBM peptide bait): 1.6

Substance: HPV30E6 ({Biotin-ttds}-RHTTSTETAV)
- final additive pKd (PDZ-proteins; PDZ-protein AHNAK): 3.716
- final additive pKd (PDZ-proteins; PDZ-protein CASK): 3.5
- final additive pKd (PDZ-proteins; PDZ-protein DLG1): 5.729
- final additive pKd (PDZ-proteins; PDZ-protein InaDl): 4.166
- final additive pKd (PDZ-proteins; PDZ-protein LAP2): 4.458
- final additive pKd (PDZ-proteins; PDZ-protein LIN7C): 4.187
- final additive pKd (PDZ-proteins; PDZ-protein LNX2): 3.771
- final additive pKd (PDZ-proteins; PDZ-protein MAGI3): 5.357
- final additive pKd (PDZ-proteins; PDZ-protein MPP5): 3.5
- final additive pKd (PDZ-proteins; PDZ-protein MPP6): 3.5
- final additive pKd (PDZ-proteins; PDZ-protein MPP7): 3.5
- final additive pKd (PDZ-proteins; PDZ-protein NHERF2): 3.5
- final additive pKd (PDZ-proteins; PDZ-protein PDLIM2): 3.5
- final additive pKd (PDZ-proteins; PDZ-protein PDLIM5): 3.5
- final additive pKd (PDZ-proteins; PDZ-protein PDLIM7): 3.5
- final additive pKd (PDZ-proteins; PDZ-protein PSMD9): 3.5
- final additive pKd (PDZ-proteins; PDZ-protein SCRIB): 5.522
- final additive pKd (PDZ-proteins; PDZ-protein SNTB1): 5.102
- final additive pKd (PDZ-proteins; PDZ-protein SNTB2): 4.675
- final additive pKd (PDZ-proteins; PDZ-protein SNX27): 5.636
- final additive pKd (PDZ-proteins; PDZ-protein SYNJ2BP): 5.355
- final additive pKd (PDZ-proteins; PDZ-protein TX1B3): 4.653
- Enrichment values compared to biotin controls (HaCat cell extract preys; prey AHNAK2, PBM peptide bait): 1.2
- Enrichment values compared to biotin controls (HaCat cell extract preys; prey AHNAK, PBM peptide bait): 1.4
- Enrichment values compared to biotin controls (HaCat cell extract preys; prey DLG1, PBM peptide bait): 3.4
- Enrichment values compared to biotin controls (HaCat cell extract preys; prey GORASP2, PBM peptide bait): 0.566
- Enrichment values compared to biotin controls (HaCat cell extract preys; prey InaDl, PBM peptide bait): 0.8
- Enrichment values compared to biotin controls (HaCat cell extract preys; prey LAP2, PBM peptide bait): 1.6
- Enrichment values compared to biotin controls (HaCat cell extract preys; prey LIN7C, PBM peptide bait): 207.8
- Enrichment values compared to biotin controls (HaCat cell extract preys; prey MAGI3, PBM peptide bait): 2.1
- Enrichment values compared to biotin controls (HaCat cell extract preys; prey MPP5, PBM peptide bait): 1.9
- Enrichment values compared to biotin controls (HaCat cell extract preys; prey MPP6, PBM peptide bait): 1.8
- Enrichment values compared to biotin controls (HaCat cell extract preys; prey MPP7, PBM peptide bait): 42.8
- Enrichment values compared to biotin controls (HaCat cell extract preys; prey NHERF2, PBM peptide bait): 1.1
- Enrichment values compared to biotin controls (HaCat cell extract preys; prey NHERF, PBM peptide bait): 2.3
- Enrichment values compared to biotin controls (HaCat cell extract preys; prey PDLIM1, PBM peptide bait): 2.3
- Enrichment values compared to biotin controls (HaCat cell extract preys; prey PDLIM2, PBM peptide bait): 1.2
- Enrichment values compared to biotin controls (HaCat cell extract preys; prey PDLIM4, PBM peptide bait): 1.3
- Enrichment values compared to biotin controls (HaCat cell extract preys; prey PDLIM5, PBM peptide bait): 0.9
- Enrichment values compared to biotin controls (HaCat cell extract preys; prey PDLIM7, PBM peptide bait): 0.658
- Enrichment values compared to biotin controls (HaCat cell extract preys; prey PTPN3, PBM peptide bait): 1.3
- Enrichment values compared to biotin controls (HaCat cell extract preys; prey SCRIB, PBM peptide bait): 0.8
- Enrichment values compared to biotin controls (HaCat cell extract preys; prey SNTB2, PBM peptide bait): 9.0
- Enrichment values compared to biotin controls (HaCat cell extract preys; prey SNX27, PBM peptide bait): 0.9
- Enrichment values compared to biotin controls (HaCat cell extract preys; prey SYNJ2BP, PBM peptide bait): 21.9
- Fold changes HaCat, SYNJ2BP (HaCat cell extract preys; prey SYNJ2BP, PBM peptide bait): 21.9
- Enrichment values compared to biotin controls (HaCat cell extract preys; prey TJP1, PBM peptide bait): 3.8
- Enrichment values compared to biotin controls (HaCat cell extract preys; prey TJP2, PBM peptide bait): 0.9
- Enrichment values compared to biotin controls (HaCat cell extract preys; prey TX1B3, PBM peptide bait): 0.9
